pIC50: −log10 of the molar value. Like-named read-outs stand apart in the source and are kept apart here.
What was measured:
HL-60 cell line = assay: MTT cell viability assay, HL-60; type: cell-based, human; conditions: HL-60, 10 μM ZnSO4, 24 hrs
[1] = system: procaspase-3-silenced HL-60 cells; assay: Cytotoxicity in procaspase-3 silenced HL-60 cells; type: cell-based, human; conditions: different concentrations, 24 hrs, vs scrambled siRNA control
Protocol: The cell viability effects of the tested compounds were determined by MTT assay. Cells (1 × 10^4 cells/100 μl/well) were seeded into 96-well culture plates. […] Subsequently, 10 μl MTT solution (2.5 mg/ml in PBS) was added to each well, than the cells were incubated for an additional 3–4 hrs at 37°C. After centrifugation (200 × g, 10 min.), the medium with MTT was aspirated, followed by the addition of 100 μl DMSO. The optical density of each well was measured at 570 nm with a Biotek Synergy TM HT Reader.
(§1) HL-60 cells were transfected with procaspase-3 siRNA (Invitrogen, New York, USA, 100 nmol/l final concentration, Sense siRNA Sequence: GUCUAACUGGAAAACCCAAtt Antisense siRNA Sequence: UUGGGUUUUCCAGUUAGACtt) by Lipofectamine 2000 (Invitrogen) according to the manufacturer’s instructions. Scrambled siRNA (Invitrogen) was control. The cDNA of human procaspase-3 was cloned into pIRES2-EGFP expression vector, and procaspase-3 and EGFP genes were separately expressed. The pIRES2-EGFP and pIRES2-EGFP-procaspase-3 were transiently transfected into MCF-7 cells. Expression of procaspase-3 was verified by western blotting.

[2] = system: MCF-7 cells transfected with procaspase-3; assay: Cytotoxicity in MCF-7 cells transfected with procaspase-3; type: cell-based, human; conditions: different concentrations, vs empty vector
Protocol: (§2) The cell viability effects of the tested compounds were determined by MTT assay. Cells (1 × 10^4 cells/100 μl/well) were seeded into 96-well culture plates. After overnight incubation, cells were treated with various concentrations of compounds for 72 hrs. Subsequently, 10 μl MTT solution (2.5 mg/ml in PBS) was added to each well, than the cells were incubated for an additional 3–4 hrs at 37°C. After centrifugation (200 × g, 10 min.), the medium with MTT was aspirated, followed by the addition of 100 μl DMSO. The optical density of each well was measured at 570 nm with a Biotek Synergy TM HT Reader.
as §1

[3] = system: human malignant cell lines; assay: MTT cytotoxicity in fifteen human malignant cell lines; type: cell-based; conditions: for pIC50: Homo sapiens, MTT, 72 hrs
Description: Human malignant cell lines, A549, Colo-205, DU145, NCI-H226, Hep-3B, Hep-G2, K562, MCF-7, U-87, GBC-SD, MDA-MB-435S, PC-3, U-937, HL60, SH-SY5Y and human normal cell lines, MCF-10A and L-02, HUVEC were obtained from the American Type Culture Collection (Manassas, VA, USA) and National Center for Medical Culture Collection (Shanghai, China). They were routinely cultured in RPMI 1640, DMEM or DMEM/F12 (Gibco, New York, USA) supplemented with 10% foetal bovine serum (Gibco, New York, USA) and maintained at 37°C in a humidified incubator with 5% CO2.
as §2

[4] = system: HL-60 and U-937 cell lines; assay: Western blot of Bcl-2 family and IAP proteins in HL-60 and U-937; type: cell-based, human; conditions: various concentrations, 24 hrs
Protocol: Approximately 1 × 10^7 HL-60 cells were gathered after pre-treatment with PAC-1 and WF-208 as previously described. The tumour tissue protein was purified according to the reported methods. Western blotting was performed as previously described. All antibodies were purchased from Cell Signaling Technology. In brief, an equal amount of total protein extracts from cultured cells or tissues were fractionated by 10–15% SDS-PAGE and electrically transferred onto polyvinylidene difluoride (PVDF) membranes. Different primary antibodies and corresponding horseradish peroxidase-conjugated secondary antibodies were used to detect the proteins. The bound secondary antibodies on the PVDF membrane were reacted with ECL™ Western Blotting Reagents detection reagents (Thermo Fisher, Rockford, USA) and exposed to X-ray films. Results were normalized to the internal control β-actin.

PBL = assay: MTT cytotoxicity in human peripheral blood lymphocytes; type: cell-based; conditions: 72 hrs
Protocol: Human peripheral blood lymphocytes were obtained as described previously. In brief, after diluting blood with PBS, lymphocytes were isolated by centrifugation over a density gradient of lymphocytes extracting solution for 15 min. at 280 × g. The cells were harvested, washed with PBS twice, and suspended in complete RPMI 1640 (Gibco, New York, USA) with 10% foetal bovine serum (Gibco, New York, USA).
as §2

PC-3 xenograft = assay: Human prostatic carcinoma PC-3 xenograft mouse model; type: in vivo
Protocol: To determine the anti-tumour activity of WF-208 in vivo, viable human prostate cancer PC-3 cells (5 × 10^6/100 μl PBS per mouse) were subcutaneously (s.c.) injected into the right flank of 7- to 8-week old male SCID mice. When the average tumour volume reached 100 mm^3, mice were randomly divided into various treatment and control group (eight mice per group). Tumour size was measured once every 2 days with a calliper (calculated volume = shortest diameter^2 × longest diameter/2). Body weight, diet consumption and tumour size were recorded once every 2 days. After 2 weeks, mice were killed and tumours were excised and stored at −80°C until further analysis.

[5] = Western blot of tumour tissue after drug exposure

O=C(CN1CCN(Cc2nc(-c3ccc(COc4ccc(Cl)cc4)cc3)no2)CC1)N/N=C/c1ccc(OCc2csc(Cc3ccc4c(c3)OCO4)n2)cc1O [C2]
cytotoxicity on co-treatment with ZnSO4 (HL-60 cell line): significantly relieved
cytotoxic effect in procaspase-3-silenced HL-60 cells [1]: less than control HL-60 cells
cytotoxic effect in MCF-7 cells transfected with procaspase-3 [2]: more sensitive
pIC50 ([3]; range over the cell lines, read-out: IC50 values against tumour cells): 4.89 to 7.10
pIC50 ([3]; read-out: overall mean IC50 value in the fifteen malignant cell lines): 5.78
fold increase of cytotoxicity (mean IC50) compared with PAC-1 ([3]; fifteen malignant cell lines): ~20 fold
expression of Bcl-2 family members Bcl-2, Bcl-xl, Bax and BID [4]: not changed
expression of XIAP and survivin [4]: significantly down-regulated
pIC50 (PBL): 3.13
influence on body weight (PC-3 xenograft; 2.5 mg/kg i.v., 15 days): minimal influence
tumour volume compared with control group (PC-3 xenograft; 2.5 mg/kg i.v., 15 days): significantly reduced
expression of activated caspase-3 and cleaved PARP in tumour tissue (PC-3 xenograft; [5]): increased
expression of survivin and XIAP in tumour tissue (PC-3 xenograft; [5]): decreased
